According to ChEMBL document CHEMBL5465560, “Selectivity Literature for EUbOPEN Chemogenomic Library” (2024):

How the values were obtained:
[1] = target: Misshapen-like kinase 1 (Homo sapiens, UniProt Q8N4C8); assay: Selectivity interaction (Kinase panel (literature)) EUB0001199aCl MINK1; conditions: at 1 µM
[2] = target: Phosphatidylinositol 4-phosphate 5-kinase type-1 alpha (Homo sapiens) (UniProt Q99755); assay: Selectivity interaction (KinomeScan (DiscoverX)) EUB0000666a PIP5K1A; conditions: at 10 µM
Chain of Phosphatidylinositol 4-phosphate 5-kinase type-1 alpha (Homo sapiens) (Q99755 whole entry): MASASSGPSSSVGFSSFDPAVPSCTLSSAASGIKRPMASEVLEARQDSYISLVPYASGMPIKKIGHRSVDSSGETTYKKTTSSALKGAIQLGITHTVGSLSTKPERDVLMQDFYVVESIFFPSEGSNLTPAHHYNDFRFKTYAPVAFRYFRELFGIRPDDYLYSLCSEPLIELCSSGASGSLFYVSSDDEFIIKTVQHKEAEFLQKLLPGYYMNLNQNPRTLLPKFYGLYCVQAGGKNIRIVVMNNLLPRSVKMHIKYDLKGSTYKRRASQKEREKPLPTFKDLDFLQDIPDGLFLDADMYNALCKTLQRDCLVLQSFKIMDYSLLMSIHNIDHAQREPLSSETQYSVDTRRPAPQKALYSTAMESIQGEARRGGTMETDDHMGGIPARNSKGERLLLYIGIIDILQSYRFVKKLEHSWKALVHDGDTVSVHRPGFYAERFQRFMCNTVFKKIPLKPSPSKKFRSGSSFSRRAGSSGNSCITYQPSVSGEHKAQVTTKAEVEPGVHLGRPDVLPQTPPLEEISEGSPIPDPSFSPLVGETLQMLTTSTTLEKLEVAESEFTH

[3] = target: Serine/threonine-protein kinase PAK 6 (Homo sapiens) (UniProt Q9NQU5); assay: Selectivity interaction (KinomeScan (DiscoverX)) EUB0000666a PAK6; conditions: at 10 µM
[4] = target: Serine/threonine-protein kinase 38 (Homo sapiens) (UniProt Q15208); assay: Selectivity interaction (KinomeScan (DiscoverX)) EUB0000229b STK38; conditions: at 10 µM
[5] = target: Serine/threonine-protein kinase Nek7 (Homo sapiens) (UniProt Q8TDX7); assay: Selectivity interaction (Kinase panel (DSF assay)) EUB0001559a NEK7
[6] = target: Aurora kinase B (Homo sapiens, UniProt Q96GD4); assay: Selectivity interaction (ActivX KiNativ screen (kinase selectivity in THP-1 cell lysates)) EUB0000639a AURKB; type: subcellular; conditions: lysate
Chain of Aurora kinase B (Q96GD4 whole entry): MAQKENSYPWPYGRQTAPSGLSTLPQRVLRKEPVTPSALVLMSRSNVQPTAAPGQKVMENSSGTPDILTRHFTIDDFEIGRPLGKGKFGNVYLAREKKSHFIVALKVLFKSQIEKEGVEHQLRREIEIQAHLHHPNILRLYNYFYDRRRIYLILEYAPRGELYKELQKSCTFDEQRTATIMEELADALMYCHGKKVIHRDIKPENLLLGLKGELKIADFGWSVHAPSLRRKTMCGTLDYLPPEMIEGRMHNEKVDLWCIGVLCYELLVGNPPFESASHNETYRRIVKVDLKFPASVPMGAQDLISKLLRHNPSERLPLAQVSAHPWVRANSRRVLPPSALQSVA

[7] = target: Serine/threonine-protein kinase 32C (Homo sapiens) (UniProt Q86UX6); assay: Selectivity interaction (ActivX KiNativ screen (kinase selectivity in THP-1 cell lysates)) EUB0000639a STK32C; type: subcellular; conditions: lysate
Chain of Serine/threonine-protein kinase 32C (Homo sapiens) (Q86UX6 whole entry, the tested form may be a part): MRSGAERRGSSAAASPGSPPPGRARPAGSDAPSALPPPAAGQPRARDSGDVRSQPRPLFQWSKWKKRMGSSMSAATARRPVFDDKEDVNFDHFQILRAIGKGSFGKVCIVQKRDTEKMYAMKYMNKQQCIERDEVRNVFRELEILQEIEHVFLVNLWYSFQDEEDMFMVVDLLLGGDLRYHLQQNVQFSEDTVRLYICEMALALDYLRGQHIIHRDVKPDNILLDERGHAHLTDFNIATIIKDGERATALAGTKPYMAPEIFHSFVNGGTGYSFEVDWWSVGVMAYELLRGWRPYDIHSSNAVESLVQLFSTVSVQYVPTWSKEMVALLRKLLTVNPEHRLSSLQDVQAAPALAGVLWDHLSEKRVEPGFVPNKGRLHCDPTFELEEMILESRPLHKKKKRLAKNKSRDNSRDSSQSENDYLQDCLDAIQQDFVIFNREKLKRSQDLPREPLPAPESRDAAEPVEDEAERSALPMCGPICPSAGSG

[8] = target: T1, Phosphatidylinositol 3-kinase C2 domain-containing subunit gamma (Homo sapiens) (UniProt O75747); assay: Selectivity interaction (KinomeScan (DiscoverX)) EUB0000595a PIK3C2G; conditions: at 10 µM
T1 sequence (whole entry): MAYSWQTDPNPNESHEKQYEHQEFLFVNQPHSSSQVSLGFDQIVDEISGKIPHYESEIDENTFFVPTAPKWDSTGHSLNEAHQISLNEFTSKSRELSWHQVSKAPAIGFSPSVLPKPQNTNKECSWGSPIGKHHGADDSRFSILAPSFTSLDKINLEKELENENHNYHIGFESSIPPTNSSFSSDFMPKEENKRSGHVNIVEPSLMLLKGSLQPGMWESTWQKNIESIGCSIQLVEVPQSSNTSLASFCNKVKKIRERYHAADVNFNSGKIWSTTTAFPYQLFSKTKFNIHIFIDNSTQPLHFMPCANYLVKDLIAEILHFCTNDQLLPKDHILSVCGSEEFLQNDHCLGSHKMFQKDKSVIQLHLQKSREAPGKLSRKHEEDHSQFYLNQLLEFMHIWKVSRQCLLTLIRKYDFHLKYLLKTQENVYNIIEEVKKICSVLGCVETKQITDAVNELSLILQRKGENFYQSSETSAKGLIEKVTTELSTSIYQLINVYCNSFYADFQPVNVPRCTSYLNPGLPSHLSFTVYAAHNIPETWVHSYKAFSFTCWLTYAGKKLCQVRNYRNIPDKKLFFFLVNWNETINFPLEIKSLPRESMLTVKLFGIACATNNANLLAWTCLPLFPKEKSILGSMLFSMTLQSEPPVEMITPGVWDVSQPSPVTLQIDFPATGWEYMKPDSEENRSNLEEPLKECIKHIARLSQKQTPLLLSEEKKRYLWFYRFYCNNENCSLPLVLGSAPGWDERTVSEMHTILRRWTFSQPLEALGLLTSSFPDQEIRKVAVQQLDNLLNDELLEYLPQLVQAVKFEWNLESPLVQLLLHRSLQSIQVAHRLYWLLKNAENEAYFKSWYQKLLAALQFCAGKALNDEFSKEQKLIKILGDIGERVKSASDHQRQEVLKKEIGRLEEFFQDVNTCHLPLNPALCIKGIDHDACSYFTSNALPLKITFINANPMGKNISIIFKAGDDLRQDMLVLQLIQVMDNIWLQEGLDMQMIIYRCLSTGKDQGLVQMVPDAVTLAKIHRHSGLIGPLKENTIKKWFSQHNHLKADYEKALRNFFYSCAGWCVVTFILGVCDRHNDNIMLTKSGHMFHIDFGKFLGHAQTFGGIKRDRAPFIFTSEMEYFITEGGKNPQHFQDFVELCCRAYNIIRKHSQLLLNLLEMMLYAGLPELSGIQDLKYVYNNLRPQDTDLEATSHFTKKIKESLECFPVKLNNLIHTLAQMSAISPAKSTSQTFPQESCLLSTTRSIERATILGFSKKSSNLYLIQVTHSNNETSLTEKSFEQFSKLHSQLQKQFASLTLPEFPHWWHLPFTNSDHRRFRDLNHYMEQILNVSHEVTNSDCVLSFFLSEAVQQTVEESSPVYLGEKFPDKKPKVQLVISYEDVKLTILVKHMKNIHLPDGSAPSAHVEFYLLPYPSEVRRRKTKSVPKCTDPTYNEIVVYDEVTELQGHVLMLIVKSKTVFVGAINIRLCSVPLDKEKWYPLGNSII

[9] = target: Fibroblast growth factor receptor 1 (Homo sapiens, UniProt P11362); assay: Selectivity interaction (Kinase screening (Nanosyn)) EUB0000604a FGFR1
[10] = target: Tyrosine-protein kinase receptor UFO (Homo sapiens) (UniProt P30530); assay: Selectivity interaction (Ambit KINOMEscan and KiNATiv profiling in Jurkat cells) EUB0000090b AXL; type: cell-based; conditions: at 1 µM
[11] = target: Mitogen-activated protein kinase 8 (Homo sapiens, UniProt P45983); assay: Selectivity interaction (KinomeScan (DiscoverX)) EUB0000045b MAPK8
Chain of Mitogen-activated protein kinase 8 (P45983 whole entry): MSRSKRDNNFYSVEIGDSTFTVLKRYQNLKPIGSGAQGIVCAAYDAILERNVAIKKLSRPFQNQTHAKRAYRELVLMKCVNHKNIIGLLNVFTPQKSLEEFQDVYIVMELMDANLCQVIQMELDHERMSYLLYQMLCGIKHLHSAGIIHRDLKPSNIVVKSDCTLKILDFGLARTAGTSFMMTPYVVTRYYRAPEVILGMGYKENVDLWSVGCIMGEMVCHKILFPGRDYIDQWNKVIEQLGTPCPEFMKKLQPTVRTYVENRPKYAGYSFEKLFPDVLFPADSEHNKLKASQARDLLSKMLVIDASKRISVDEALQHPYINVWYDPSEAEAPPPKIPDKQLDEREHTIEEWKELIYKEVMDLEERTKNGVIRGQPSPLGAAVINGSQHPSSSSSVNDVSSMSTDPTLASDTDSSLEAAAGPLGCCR

[12] = target: MAP/microtubule affinity-regulating kinase 3 (Homo sapiens) (UniProt P27448); assay: Selectivity interaction (KinomeScan (DiscoverX)) EUB0000045b MARK3
Chain of MAP/microtubule affinity-regulating kinase 3 (Homo sapiens) (P27448 whole entry, looked up): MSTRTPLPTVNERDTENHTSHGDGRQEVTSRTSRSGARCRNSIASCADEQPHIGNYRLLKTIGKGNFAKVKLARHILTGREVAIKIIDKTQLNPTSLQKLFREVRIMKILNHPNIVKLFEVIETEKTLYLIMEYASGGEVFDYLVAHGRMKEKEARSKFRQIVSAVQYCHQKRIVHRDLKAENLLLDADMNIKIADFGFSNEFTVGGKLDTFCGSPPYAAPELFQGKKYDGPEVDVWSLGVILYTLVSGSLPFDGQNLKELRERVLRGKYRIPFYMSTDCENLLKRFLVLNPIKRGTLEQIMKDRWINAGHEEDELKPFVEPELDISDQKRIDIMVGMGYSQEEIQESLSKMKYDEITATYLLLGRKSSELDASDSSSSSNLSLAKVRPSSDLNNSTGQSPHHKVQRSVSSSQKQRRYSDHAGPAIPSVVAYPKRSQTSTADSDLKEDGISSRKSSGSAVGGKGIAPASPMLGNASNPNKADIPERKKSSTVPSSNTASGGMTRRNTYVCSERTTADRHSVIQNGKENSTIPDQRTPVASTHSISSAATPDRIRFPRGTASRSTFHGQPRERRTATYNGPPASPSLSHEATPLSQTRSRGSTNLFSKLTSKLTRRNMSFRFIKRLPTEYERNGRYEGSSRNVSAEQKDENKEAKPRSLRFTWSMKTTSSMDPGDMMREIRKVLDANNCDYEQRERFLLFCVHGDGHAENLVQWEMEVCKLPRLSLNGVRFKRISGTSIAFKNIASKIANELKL

[13] = target: Tyrosine-protein kinase receptor Tie-1 (Homo sapiens) (UniProt P35590); assay: Selectivity interaction (KinomeScan (DiscoverX)) EUB0000618a TIE1; conditions: at 10 µM
Chain of Tyrosine-protein kinase receptor Tie-1 (Homo sapiens) (P35590 whole entry): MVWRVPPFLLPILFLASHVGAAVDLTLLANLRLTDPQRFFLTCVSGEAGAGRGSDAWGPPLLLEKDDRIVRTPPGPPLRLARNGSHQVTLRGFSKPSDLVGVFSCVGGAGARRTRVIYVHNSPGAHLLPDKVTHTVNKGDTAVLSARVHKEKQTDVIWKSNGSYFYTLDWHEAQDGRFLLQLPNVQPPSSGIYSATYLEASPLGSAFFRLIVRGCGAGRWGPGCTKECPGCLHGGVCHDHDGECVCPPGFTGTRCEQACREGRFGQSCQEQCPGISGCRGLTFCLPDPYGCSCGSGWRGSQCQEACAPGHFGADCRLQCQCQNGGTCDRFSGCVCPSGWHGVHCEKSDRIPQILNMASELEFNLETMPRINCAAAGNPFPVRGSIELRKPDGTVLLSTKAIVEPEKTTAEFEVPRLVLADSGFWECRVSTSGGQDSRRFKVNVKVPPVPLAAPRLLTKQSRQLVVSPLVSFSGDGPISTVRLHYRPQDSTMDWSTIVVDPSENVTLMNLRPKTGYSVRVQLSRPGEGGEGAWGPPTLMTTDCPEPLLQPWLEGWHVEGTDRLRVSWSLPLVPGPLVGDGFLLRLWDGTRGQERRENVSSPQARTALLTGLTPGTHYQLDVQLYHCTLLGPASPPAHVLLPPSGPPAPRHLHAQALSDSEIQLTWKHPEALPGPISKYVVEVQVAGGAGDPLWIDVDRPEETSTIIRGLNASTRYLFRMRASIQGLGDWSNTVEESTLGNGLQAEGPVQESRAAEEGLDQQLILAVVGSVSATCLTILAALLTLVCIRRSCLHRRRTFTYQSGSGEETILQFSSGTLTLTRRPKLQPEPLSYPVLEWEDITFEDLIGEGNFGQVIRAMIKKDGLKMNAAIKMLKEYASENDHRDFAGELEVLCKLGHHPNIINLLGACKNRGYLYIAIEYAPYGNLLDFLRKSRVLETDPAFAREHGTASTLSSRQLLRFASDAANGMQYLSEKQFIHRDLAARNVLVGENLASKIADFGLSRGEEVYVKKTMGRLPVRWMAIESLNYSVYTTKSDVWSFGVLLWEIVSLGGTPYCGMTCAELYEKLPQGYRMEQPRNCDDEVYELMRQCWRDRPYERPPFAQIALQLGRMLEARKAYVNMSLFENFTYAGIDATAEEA

[14] = target: Cyclin-dependent kinase 14 (Homo sapiens) (UniProt O94921); conditions: at 10 µM
[15] = target: BMP-2-inducible protein kinase (Homo sapiens) (UniProt Q9NSY1); conditions: at 10 µM
[16] = target: Tyrosine-protein kinase Fes/Fps (Homo sapiens) (UniProt P07332); assay: Selectivity interaction (KinomeScan (DiscoverX)) EUB0001619a FES; conditions: at 1 µM
[17] = target: Mitogen-activated protein kinase kinase kinase 8 (Homo sapiens, UniProt P41279); assay: Selectivity interaction (SelectScreen profiling (Invitrogen)) EUB0000607a MAP3K8; conditions: at 2 µM
Chain of Mitogen-activated protein kinase kinase kinase 8 (P41279 whole entry): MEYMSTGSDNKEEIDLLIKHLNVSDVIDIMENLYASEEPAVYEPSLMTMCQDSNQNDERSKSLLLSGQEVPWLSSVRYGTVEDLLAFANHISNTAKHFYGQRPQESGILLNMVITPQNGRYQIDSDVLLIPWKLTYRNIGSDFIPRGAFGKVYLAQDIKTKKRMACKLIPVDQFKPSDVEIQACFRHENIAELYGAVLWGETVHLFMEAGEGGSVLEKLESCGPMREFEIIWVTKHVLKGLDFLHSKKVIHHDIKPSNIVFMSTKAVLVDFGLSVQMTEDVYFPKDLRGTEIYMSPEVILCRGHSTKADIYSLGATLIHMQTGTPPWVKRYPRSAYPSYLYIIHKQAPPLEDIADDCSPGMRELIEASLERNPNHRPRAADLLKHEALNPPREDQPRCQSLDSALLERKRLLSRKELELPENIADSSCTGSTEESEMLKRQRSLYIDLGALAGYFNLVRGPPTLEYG

[18] = target: Serine/threonine-protein kinase SIK1 (Homo sapiens) (UniProt P57059); assay: Selectivity interaction (ProQinase) EUB0000171b SIK1
Chain of Serine/threonine-protein kinase SIK1 (Homo sapiens) (P57059 whole entry): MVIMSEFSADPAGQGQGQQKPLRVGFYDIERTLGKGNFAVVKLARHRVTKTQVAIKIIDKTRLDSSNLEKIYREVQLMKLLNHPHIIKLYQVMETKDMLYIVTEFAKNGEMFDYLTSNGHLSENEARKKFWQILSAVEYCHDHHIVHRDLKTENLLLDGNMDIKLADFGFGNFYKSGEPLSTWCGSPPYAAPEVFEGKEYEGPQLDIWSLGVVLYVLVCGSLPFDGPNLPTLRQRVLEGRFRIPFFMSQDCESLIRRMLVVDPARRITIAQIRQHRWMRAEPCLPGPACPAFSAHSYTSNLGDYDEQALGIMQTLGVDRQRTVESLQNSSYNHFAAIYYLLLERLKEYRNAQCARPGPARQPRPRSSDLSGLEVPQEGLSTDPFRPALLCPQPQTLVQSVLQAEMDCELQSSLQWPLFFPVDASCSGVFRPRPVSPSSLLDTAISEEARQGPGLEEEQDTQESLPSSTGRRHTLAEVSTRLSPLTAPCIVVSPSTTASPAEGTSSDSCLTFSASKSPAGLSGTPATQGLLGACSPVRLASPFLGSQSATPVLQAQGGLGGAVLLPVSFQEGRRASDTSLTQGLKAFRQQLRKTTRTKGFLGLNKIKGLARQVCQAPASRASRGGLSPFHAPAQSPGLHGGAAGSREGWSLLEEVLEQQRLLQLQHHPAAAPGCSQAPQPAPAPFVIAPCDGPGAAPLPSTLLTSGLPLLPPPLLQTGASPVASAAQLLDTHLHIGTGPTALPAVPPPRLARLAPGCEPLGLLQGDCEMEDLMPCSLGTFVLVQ

## CN1Cc2nccc(-c3cn(C)nc3-c3ccc(F)cc3)c2C1=O
[1]
  % of inhibition: 42%

## O=C(NOC[C@H](O)CO)c1ccc(F)c(F)c1Nc1ccc(I)cc1F
[2]
  % of control: 91%
[3]
  % of control: 100%

## COc1cc(N(C)c2ccnc3ccc(C(F)(F)F)cc23)cc(OC)c1OC
[4]
  % binding: 83%

## CN(C(=O)c1cnn2cccnc12)c1cc2c(cc1N1CCOCC1)C(=O)N(C[C@@H](F)C(C)(C)O)C2
[5]
  dTM: 0.5 K

## CC[C@@H]1[C@H](F)C(=O)N[C@@H]1COc1nccc2cc(C(N)=O)c(OC)cc12 [ZIMLOVISERTIB]
[6]; at 0.01 µM
  % of inhibition: 9.7%
[6]; at 0.04 µM
  % of inhibition: 3.4%
[6]; at 0.2 µM
  % of inhibition: 11.1%
[6]; at 1 µM
  % of inhibition: 32.2%
[6]; at 5 µM
  % of inhibition: 63.1%
[7]; at 0.01 µM
  % of inhibition: -1.5%
[7]; at 0.04 µM
  % of inhibition: -7.2%
[7]; at 0.2 µM
  % of inhibition: -0.3%
[7]; at 1 µM
  % of inhibition: -5.2%
[7]; at 5 µM
  % of inhibition: -11.5%

## COCC(=O)NC/C=C/c1ccc2ncnc(Nc3ccc(Oc4ccc(C)nc4)c(C)c3)c2c1 [CP-724714]
[8]
  % of control: 24%

## Cc1cnc(Nc2ccc(F)cc2Cl)nc1-c1c[nH]c(C(=O)N[C@H](CO)c2cccc(Cl)c2)c1
[9]
  % of inhibition: 3%

## CN(C)C/C=C/C(=O)Nc1ccc(C(=O)N2CCCC(Nc3ncc(Cl)c(-c4c[nH]c5ccccc45)n3)C2)cc1 (centres undefined)
[10]
  % of control: 92%

## C=CC(=O)Nc1cc(-n2c(=O)ccc3cnc4ccc(-c5ccc(NS(C)(=O)=O)cc5)cc4c32)ccc1C
[11]; at 1 µM
  % of control: 93%
[11]; at 10 µM
  % of control: 14%
[12]; at 1 µM
  % of control: 75%
[12]; at 10 µM
  % of control: 97%

## O[C@H]1CC[C@H](Nc2ncc3nc(Nc4c(F)cc(F)cc4F)n([C@H]4CCOC4)c3n2)CC1
[13]
  % of control: 100%

## Cc1cc([C@@H](C)Nc2ccccc2C(=O)O)c2nc(N3CCOCC3)cc(=O)n2c1 [AZD-6482]
[14]
  % of control: 100%
[15]
  % of control: 94%

## N#Cc1cccc(-c2c[nH]c3ncnc(N4CCOCC4)c23)c1
[16]
  % of control: 100%

## CNC(=O)Nc1ccc(-c2nc(N3CC4CCC(C3)O4)c3cnn(C4CCC5(CC4)OCCO5)c3n2)cc1
[17]
  % of inhibition: 1%

## C=CC(=O)Nc1cccc(C(=O)Nc2ccc(Nc3cc(-c4[nH]c(SC)nc4C)ccn3)cc2)c1
[18]; at 1 µM
  % of control: 107%
[18]; at 5 µM
  % of control: 102%
